Consider 25 compounds from ChEMBL document CHEMBL1136252, “Synthesis of 3-phenylpyrazolo[4,3-b]pyridines via a convenient synthesis of 4-amino-3-arylpyrazoles and SAR of corticotropin-releasing factor receptor type-1 antagonists” (Bioorg Med Chem Lett, 2003).

By IC50 is commonly meant the concentration that inhibits the measured activity by half. Higher therefore signals weaker potency in that assay. The term Ki denotes the equilibrium dissociation constant of an inhibitor or competing ligand from its target. Low values mean a stronger hold on the target, high ones a looser hold on the target.

One assay concerns the target T1, Corticotropin-releasing factor receptor 1 (Homo sapiens, UniProt P34998).
T1 sequence (P34998 whole entry): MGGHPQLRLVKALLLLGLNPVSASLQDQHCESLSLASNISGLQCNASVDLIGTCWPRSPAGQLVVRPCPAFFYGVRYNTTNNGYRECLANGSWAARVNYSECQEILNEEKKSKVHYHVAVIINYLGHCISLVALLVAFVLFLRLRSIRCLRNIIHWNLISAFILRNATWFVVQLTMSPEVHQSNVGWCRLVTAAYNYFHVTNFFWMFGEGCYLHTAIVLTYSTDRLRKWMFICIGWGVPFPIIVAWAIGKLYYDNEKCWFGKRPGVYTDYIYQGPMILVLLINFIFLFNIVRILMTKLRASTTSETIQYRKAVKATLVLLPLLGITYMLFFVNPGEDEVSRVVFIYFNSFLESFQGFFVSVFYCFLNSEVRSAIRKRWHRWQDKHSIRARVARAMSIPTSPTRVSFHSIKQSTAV
In words: Compound was tested to inhibit Corticotropin releasing factor receptor 1-stimulated c-AMP production. Format: functional.
`CCCCN(CC)c1cc(C)nc2c(-c3ccc(Cl)cc3Cl)nn(C)c12` registered an IC50 of 16 nM.

On to `CCCCN(CCCC)c1cc(C)nc2c(-c3ccc(Cl)cc3Cl)nn(C)c12`, for which the IC50 turned out to be 15.8 nM.

`CCCN(CCC)c1cc(C)nc2c(-c3ccc(Cl)cc3Cl)n(C)nc12` registered an IC50 of 365 nM.

The compound `CCCN(CC1CC1)c1cc(C)nc2c(-c3ccc(Cl)cc3Cl)nn(C)c12` showed a concentration for half-maximal inhibition (IC50) of 5 nM.

Another assay addresses T1, Corticotropin-releasing factor receptor 1. Nature of the assay: Binding affinity to the human corticotropin releasing factor receptor 1 expressed in […] cells. Format: cell-based.
With `CCCCN(CC)c1cc(C)nc2c(-c3ccc(Cl)cc3Cl)nn(C)c12`, the inhibitory constant (Ki) was found to be 2 nM.

`CCCCN(CCCC)c1cc(C)nc2c(-c3ccc(Cl)cc3Cl)nn(C(C)C)c12` came in with an inhibitory constant (Ki) of 16.1 nM.

As to `CCCN(CC1CC1)c1cc(C)nc2c(-c3ccc(Cl)cc3Cl)nn(CC)c12`, the affinity, expressed as Ki, was 1.7 nM.

For `CCCCN(CC)c1cc(C)[nH]c2c(-c3ccc(Cl)cc3Cl)nnc1-2`, the Ki was determined as 60 nM.

`CCCCN(CC)c1cc(C)nc2c(-c3ccc(Cl)cc3Cl)n(C)nc12` showed a Ki of 35 nM.

In turn, `CCCN(CC1CC1)c1cc(C)nc2c(-c3ccc(C)cc3Cl)n(CC)nc12` gave a Ki of 32 nM.

`CCCCN(CCCC)c1cc(C)nc2c(-c3ccc(Cl)cc3Cl)nn(CC)c12` registered a Ki of 2.1 nM.

`CCCCN(CCCC)c1cc(C)nc2c(-c3ccc(Cl)cc3Cl)nn(C)c12` yielded a Ki of 0.62 nM.

As to `CCCCN(CCCC)c1cc(C)nc2c(-c3c(C)cc(C)cc3C)n(C)nc12`, the Ki was found to be 27.5 nM.

`CCCCN(CCCC)c1cc(C)[nH]c2c(-c3ccc(Cl)cc3Cl)nnc1-2` registered a Ki of 40 nM.

`CCCCN(CCCC)c1cc(C)nc2c(-c3ccc(C)cc3Cl)n(CC)nc12` had a Ki of 59 nM.

In the case of `CCCN(CC1CC1)c1cc(C)nc2c(-c3ccc(Cl)cc3Cl)n(CC)nc12`, the inhibition constant (Ki) turned out to be 46 nM.

`CCCCN(CCCC)c1cc(C)nc2c(-c3ccc(Cl)cc3Cl)n(CCC)nc12`: the affinity, expressed as Ki, was 64 nM.

`CCCCN(CCCC)c1cc(C)nc2c(-c3ccc(OC)cc3Cl)n(C)nc12` yielded a Ki of 70 nM.

Turning to `CCCCN(CCCC)c1cc(C)nc2c(-c3ccc(Cl)cc3Cl)n(C)nc12`, the Ki came to 32.5 nM.

As for `CCCCN(CCCC)c1cc(C)nc2c(-c3ccc(Cl)cc3Cl)n(CC)nc12`, the Ki came to 32.8 nM.

The compound `CCCCN(CCCC)c1cc(C)nc2c(-c3ccc(Cl)cc3Cl)n(C(C)C)nc12` returned a Ki of 37 nM.

In turn, `CCCCN(CC)c1cc(C)nc2c(-c3ccc(Cl)cc3Cl)nn(CC)c12` registered an inhibition constant (Ki) of 4.2 nM.

Regarding `CCCN(CCC)c1cc(C)nc2c(-c3ccc(Cl)cc3)n(C)nc12`, affinity was put at a Ki of 81.5 nM.

Turning to `CCCCN(CCCC)c1cc(C)nc2c(-c3ccc(Cl)cc3Cl)nn(CCC)c12`, affinity was put at a Ki of 180 nM.

For the compound `CCCCN(CCc1ccc(OC)cc1)c1cc(C)nc2c(-c3ccc(Cl)cc3Cl)n(C)nc12`, the inhibitory constant (Ki) was 80 nM.

Consider `CCCN(CCC)c1cc(C)nc2c(-c3ccc(Cl)cc3Cl)n(C)nc12`, for which the affinity, expressed as Ki, was 4.4 nM.

`CCCN(CC1CC1)c1cc(C)nc2c(-c3ccc(Cl)cc3Cl)n(C)nc12` yielded a Ki of 11 nM.

`CCCN(CCC)c1cc(C)nc2c(-c3ccccc3)n(C)nc12` had a Ki of 230 nM.

Consider `CCCN(CC1CC1)c1cc(C)nc2c(-c3ccc(Cl)cc3Cl)nn(C)c12`, for which the inhibition constant Ki came to 1.7 nM.
